Consider four compounds from patent US9644000B2, “V1a receptor agonists” (Ferring B.V., priority 2012, dated 2017).

Each structure is given as a SMILES string. *1 amine or outer side, *2 acyl side, *3 side chain or, on linkers, in order; H or OH if unused. Where a SMILES comes first, the peptide text is derived from it. Bridges are numbered along the chain shown (N, C = ends). Roman numbers before positions name the chains, in order. [ ]: non-standard residue; d: D form. The star is where a group is joined. d(isoGln) = NC(=O)[C@@H](CCC(=O)[*:2])N[*:1]; isoGln = NC(=O)[C@H](CCC(=O)[*:2])N[*:1]; d(εLys) = N[C@H](CCCCN[*:1])C(=O)[*:2]; Aad = N[C@@H](CCCC(=O)O)C(=O)O; Cit = NC(=O)NCCC[C@H](N)C(=O)O; Dab = NCC[C@H](N)C(=O)O; PhAc = O=C(Cc1ccccc1)*

For test [1] the following is noted: HRS1 patients; cited from earlier work.
The target of a further test is T1, human V1aR (Homo sapiens, UniProt P37288).
T1 construct: expressed in transfected cells
T1 sequence (P37288 whole entry): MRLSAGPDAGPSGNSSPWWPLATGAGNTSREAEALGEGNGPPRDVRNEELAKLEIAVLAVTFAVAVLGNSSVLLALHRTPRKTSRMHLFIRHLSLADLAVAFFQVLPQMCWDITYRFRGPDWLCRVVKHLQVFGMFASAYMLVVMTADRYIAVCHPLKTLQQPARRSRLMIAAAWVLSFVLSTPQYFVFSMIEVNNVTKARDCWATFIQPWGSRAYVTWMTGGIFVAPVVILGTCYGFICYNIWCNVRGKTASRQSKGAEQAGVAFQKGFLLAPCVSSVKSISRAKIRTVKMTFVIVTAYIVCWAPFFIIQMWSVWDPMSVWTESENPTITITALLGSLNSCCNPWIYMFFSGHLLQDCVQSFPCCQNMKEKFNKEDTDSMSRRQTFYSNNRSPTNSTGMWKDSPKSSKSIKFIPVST
Description: FLIPR calcium agonist assay in HEK-flpin cells expressing the vasopressin V1a receptor. Type of test: cell-based. The method, then: Efficacy (% MPE) is also determined as the percentage of maximal possible effect. This agonist assay utilizes cells from a stable cell line (HEK-flpin) expressing the vasopressin V1a receptor. Intracellular calcium increase in response to agonist is measured through real-time fluorescence of an intracellular calcium-sensitive dye. Cells are exposed to varying concentrations of test agonist compounds whereupon release of intracellular calcium is measured to determine the agonist potency and efficacy.
The cell line stably expresses the lacZ-Zeocin™ fusion gene and is designed for use with the Flp-In™ expression vector containing the gene of interest and the Flp recombinase expression plasmid, pOG44. The cell line contains a single integrated Flp Recombination Target (FRT) site from pFRT/lacZeo or pFRT/lacZeo2. To generate the HEK-flpin cell line stably expressing the human V1aR, the cells were co-transfected with the Flp-In™ expression vector containing the gene of interest (pcDNA5/FRT-hV1aR) and the Flp recombinase expression plasmid pOG44. Flp recombinase mediates insertion of the Flp-In™ expression vector into the genome at the integrated FRT site through site-specific DNA recombination. Stable cell lines expressing the hV1aR from the Flp-In™ expression vector can be generated by selection using hygromycin B. See Life Technologies/Invitrogen manual, Growth and Maintenance of Flp-In™ Cell Lines, Version E, published Feb.
Efficacy of this compound was set to be 100%. A stock solution of 5 mM was made up in DMSO and stored at −20° C.
HEK-flpin-hV1aR, cmcqV1aR, dV1aR and pV1aR cells were maintained in DMEM containing 10% (v/v) FBS-HI, 4 mM GlutaMAX™-I, 25 μg/mL Hygromycin B at 37° C. under 5% CO2 in a humidified atmosphere. […]
The cell plates were transferred to FLIPR Tetra, along with a 384 well V-bottom plate pre-loaded with half-log concentrations of test compounds at 10× final test concentrations. […] The agonist-induced fluorescence signal was then measured for 180 s with initial 120 readings at 1-second intervals followed by 20 readings at 3-second intervals. […]

As to `NCCCC[C@H](NC(=O)[C@@H]1CCCN1C(=O)[C@@H]1CSSC[C@H](NC(=O)CNC(=O)CNC(=O)CN)C(=O)N[C@@H](Cc2ccc(O)cc2)C(=O)N[C@@H](Cc2ccccc2)C(=O)N[C@@H](CCC(N)=O)C(=O)N[C@@H](CC(N)=O)C(=O)N1)C(=O)NCC(N)=O` [Terlipressin, terlipressin] (H-GGGCYFQNCPKG-NH2; disulfide 4-9), the “patients in whom renal failure is reversed” value in test [1] is 30-40%.

In general, EC50 refers to the concentration at which the effect is half-maximal. Consider `CC[C@H](C)[C@@H]1NC(=O)[C@H](Cc2ccccc2)NC(=O)[C@@H](N)CSSC[C@@H](C(=O)N2CCC[C@H]2C(=O)N[C@@H](CCNC(=O)[C@H](N)CCCCNC(=O)CC[C@@H](NC(=O)[C@H](CCCNC(=N)N)NC(=O)[C@@H]2CCCN2C(=O)[C@H](CCCNC(N)=O)NC(=O)[C@H](CC(N)=O)NC(=O)[C@H](CCC(N)=O)NC(=O)[C@H](Cc2ccccc2)NC(=O)[C@@H](Cc2ccc(OC)cc2)NC(=O)Cc2ccccc2)C(N)=O)C(=O)NCC(N)=O)NC(=O)[C@H](CC(N)=O)NC(=O)[C@H](CCC(N)=O)NC1=O` [Compound 55] (I: H-CFIQNCP[Dab]G-NH2 / II: PhAc-[dY](Me)FQN[Cit]PR[d(isoGln)][d(εLys)]; disulfide I:1-I:6; amide I:8-II:C), for which the half-maximal effective concentration (EC50) on human V1aR worked out at 1.7 nM. Take `CC[C@H](C)[C@@H]1NC(=O)[C@H](Cc2ccccc2)NC(=O)[C@@H](N)CSSC[C@@H](C(=O)N2CCC[C@H]2C(=O)N[C@@H](CCNC(=O)[C@H](N)CCCCNC(=O)CC[C@H](NC(=O)[C@H](CCCNC(=N)N)NC(=O)[C@@H]2CCCN2C(=O)[C@H](C)NC(=O)[C@H](CC(N)=O)NC(=O)[C@H](CCC(N)=O)NC(=O)[C@H](Cc2ccccc2)NC(=O)[C@@H](Cc2ccc(OC)cc2)NC(=O)Cc2ccccc2)C(N)=O)C(=O)NCC(N)=O)NC(=O)[C@H](CC(N)=O)NC(=O)[C@H](CCCC(N)=O)NC1=O` [Compound 62] (I: H-CFI[Aad](NH2)NCP[Dab]G-NH2 / II: PhAc-[dY](Me)FQNAPR[isoGln][d(εLys)]; disulfide I:1-I:6; amide I:8-II:C): at human V1aR (HEK-flpin-hV1aR cells, AVP efficacy set to 100%), the “Efficacy Avg. (% MPE, as compared to AVP)” value was found to be 31%. For the compound `CC[C@H](C)[C@@H]1NC(=O)[C@H](Cc2ccccc2)NC(=O)[C@@H](N)CSSC[C@@H](C(=O)N2CCC[C@H]2C(=O)N[C@@H](CCNC(=O)[C@H](N)CCCCNC(=O)CC[C@H](NC(=O)[C@H](CCCNC(=N)N)NC(=O)[C@@H]2CCCN2C(=O)[C@H](CCN)NC(=O)[C@H](CC(N)=O)NC(=O)[C@H](CCC(N)=O)NC(=O)[C@H](Cc2ccccc2)NC(=O)[C@@H](Cc2ccc(OC)cc2)NC(=O)Cc2ccccc2)C(N)=O)C(=O)NCC(N)=O)NC(=O)[C@H](CC(N)=O)NC(=O)[C@H](CC(N)=O)NC1=O` [Compound 59] (I: H-CFINNCP[Dab]G-NH2 / II: PhAc-[dY](Me)FQN[Dab]PR[isoGln][d(εLys)]; disulfide I:1-I:6; amide I:8-II:C), on human V1aR, the EC50 was 1.7 nM.
